Experimental data: paper PMC7700040, “Phytochemical Analysis, Anti-inflammatory, and Antioxidant Activities of Dendropanax dentiger Roots” (BioMed Research International, 2020)
In brackets after ≈: the same amount, converted by molar mass.

Assays:
[1] = DPPH radical scavenging activity; details: mean ± SD (n = 3)
Procedure: Briefly, 150 μL of DPPH solution (dissolved 0.2 mM in methanol) was mixed with 50 μL of the sample at different concentrations. The mixture was stirred and incubated in the dark at 30°C for 30 min, and the absorbance was determined at 517 nm (Asample). The absorbance of a blank (Ablank) and negative control (Acontrol) composed of only the sample and DPPH solutions was also determined, respectively. The DPPH radical scavenging activity of the sample was calculated by the following equation: DPPHscavengingactivity = [1 − (Asample–Ablank)/Acontrol] × 100%. Vc was used as a positive control in this experiment.

[2] = ABTS radical scavenging activity; details: mean ± SD (n = 3)
Procedure: The ABTS radical scavenging activity of the sample was carried out using the method reported by Sun et al. with minor modification. Briefly, 1.76 mL of K2S2O8 (140 mM) and 100 mL of ABTS solution (7 mM) were mixed and stored in the dark at 25°C for 12 h. […] The absorbance of a blank (Ablank) and negative control (Acontrol) composed of only the sample and diluted ABTS^+ radical solutions was also determined, respectively. The ABTS radical scavenging activity of the sample was calculated by the following equation: […] = [1 - (Asample-Ablank)/Acontrol] × 100%. Vc was used as a positive control in this experiment.

Question: With `O=C1O[C@H]([C@@H](O)CO)C(O)=C1O` [Vc, L-Ascorbic acid] as the molecule, how does the “IC50 DPPH assay” value [1] read?
Answer: The value was 6.0 ± 0.2 µg/mL (≈ 34.1 µM).

Question: And the “IC50 ABTS assay” value [2]?
Answer: Its value is 1.2 ± 0.1 µg/mL (≈ 6.81 µM).
